# Laboratory results as given in patent publication US20140371070A1, “PLANT GROWTH REGULATING COMPOUNDS” (Syngenta Participations AG, priority 2011, published 2014).
row,melting point [°C],Structure (SMILES)
1,118 to 119,O=C(CCC(=O)OCCCC(F)(F)F)Nc1ccc(Br)cn1
2,97 to 98,"CC1(CCOC(=O)CCC(=O)Nc2ccc(Br)cn2)OCCO1 [Compound A43, 2-(2-methyl-1,3-dioxolan-2-yl)ethyl 4-[(5-bromo-2-pyridyl)amino]-4-oxo-butanoate]"
